{"source": "patent US5360796A", "about": "“Imidazo[1,2-a]pyridinylalkyl phosphonic acid compounds for treatment of neurotoxic injury” (G. D. Searle & Co., priority 1991, dated 1994)", "key": {"[1]": {"biological_target": "NMDA receptor", "assay": "NMDA-Selective Glutamate Binding Assay (L-[3H]glutamate)", "design": "species or system rat", "details": "12.5 nM L-[3H]glutamate, synaptic plasma membranes, pH 7.4, 0-4° C., 10 min; read-out: NMDA Receptor Binding Data, Ki IC50 Binding NMDA", "description": "Synaptic plasma membranes (SPM) were prepared as previously described [Monahah, J. B. and Michel, J., \"Identification and Characterization of an N-methyl-D-aspartate-specific L[^3 H]glutamate Recognition Site in Synaptic Plasma Membranes, J. Neurochem., 48, 1699-1708 (1987)]. The SPM were stored at a concentration of 10-15 mg/ml in 0.32M sucrose, 0.5 mM EDTA, 1 mM MgSO4, 5 mM Tris/SO4, pH 7.4, under liquid nitrogen. The identity and purity of the subcellular fractions were confirmed by both electron microscopy and marker enzymes. Protein concentrations were determined by using a modification of the method of Lowry [Ohnishi, S. T. and Barr, J. K., \"A Simplified Method of Quantitating Proteins using the Biuret and Phenol Reagents\", Anal. Biochem., 86, 193-197 (1978)]. The SPM were treated identically for the [^3 H]AMPA (QUIS), [^3 H]kainate and sodium-dependent L-[^3 H]-glumatate binding assays. The SPM were thawed at room temperature, diluted twenty-fold with 50mM Tris/acetate, pH 7.4, incubated at 37° C. for 30 minutes, and centrifuged at 100,000 g for 15 minutes. The dilution, incubation, and centrifugation was repeated a total of three times. Prior to use in the NMDA-specific L-[^3 H]-glutamate binding assay the SPM were thawed, diluted twenty fold with 50 mM Tris/acetate, pH 7.4 containing 0.04% (v/v) Triton X-100, incubated for 30 minutes at 37° C. and centrifuged as described above. The Triton X-100 treated membranes were washed with 50 mM Tris/acetate, pH 7.4 and centrifuged at 100,000 g for 15 minutes a total of four times. […] The basic procedure for the receptor subclass binding assays was similar. This general method involved adding the radioligand (12.5 nM L-[^3 H] glutamate; 0.5 nM [^3 H]kainate or 10 nM [^3 H]AMPA) to the appropriate concentration of the test compound and initiating the assay by the addition of ice cold synaptic plasma membranes (0.2-0.45 mg). The binding assays were performed in 1.5 mL centrifuge tubes with the total volume adjusted to 1.0 mL. Additions of test compounds were made in 50 mM Tris/acetate, pH 7.4 and incubations were carried out at 0°-4° C. The incubation time for the NMDA and the AMPA binding assays was 10 minutes, for the kainate binding assay 60 minutes and for the sodium-dependent glutamate binding assay 15 minutes. The AMPA binding assay contained 100 mM KSCN and the sodium-dependent glutamate binding assay contained 150 mM sodium acetate in addition to the previously described reagents. To terminate the incubation, the samples were centrifuged for 15 minutes at 12,000 g and 4° C. in a Beckman Microfuge 12. The supernatant was aspirated and the pelleted membranes dissolved in Beckman BTS-450 tissue solubilizer for a minimum of 6 hours at room temperature. Beckman MP scintillation cocktail containing 7 mL/1 acetic acid was then added and the samples counted on a Beckman LS 5800 or 3801 liquid scintillation counter with automatic corrections for quenching and counting efficiency. Nonspecific binding was defined as the residual binding in the presence of either excess L-glutamate (0.1-0.4 mM), kainate (0.01 mM), or NMDA (0.5 mM), and was 15-25% of the total binding in the NMDA binding assay, 19-27% in the AMPA binding assay, 20-30% in the kainate binding assay and 10-15% in the sodium-dependent binding assay. Radioligand binding to the synaptic plasma membranes was analyzed using Scatchard and Hill transformations and the Ki values of the compounds determined using logit-log transformations. Calculations and regression analysis were performed using templates developed for Lotus 1, 2, 3 as previously described [Pullan, L. M. \"Automated Radioligand Receptor Binding Analysis with Templates for Lotus\", Computer Appln. Biosci., 3, 131 (1987)]. Binding results are reported in Table I for example compounds of the invention."}, "[2]": {"biological_target": "TCP (1-[1-(2-thienyl)cyclohexyl]piperidine) binding", "assay": "TCP Modulation Assay", "design": "species or system rat", "details": "2 nM tritiated TCP, 0.05 mM L-glutamate, rat brain SPM, pH 7.4, 25° C., 60 min; read-out: TCP Ki IC50", "description": "The effect on the TCP (1-[1-(2-thienyl)cyclohexyl]piperidine) binding was measured in rat brain synaptic membranes (SPM) prepared as previously described [J. B. Monahah & J. Michel; J. Neurochem. […] Prior to their use in the binding assay, frozen SPM were thawed, diluted twenty fold with 50 mM Tris/acetate (pH 7.4 containing 0.04% (v/v) Triton X-100), incubated for 30 min. at 37° C. and centrifuged at 95,000 xg for 15 min. The Triton X-100 treated SPM were washed with 5 mM Tris/HCl, pH 7.4 and centrifuged a total of six times. […] The samples were filtered through glass fiber filters (Schleicher & Schuell #32) which have been pretreated with 0.05% (v/v) polyethylenimine, washed 4 times with 2 ml of ice-cold 5 mM Tris/HCl buffer, and then counted on a Beckman LS 5800 liquid scintillation counter with automatic corrections for quenching and counting efficiency. Inhibition of TCP binding was measured as a decrease in the binding in the presence of 0.05 mM L-glutamate. Non-specific binding was defined as the residual binding in the presence of […] phencyclidine."}, "[3]": {"system": "tonic hindlimb extensor seizures", "assay": "Anticonvulsant Assay (electroconvulsive shock)", "format": "in vivo, mouse (CD-1)", "details": "for Protected from ECS (% of Mice): 30 min prior to ECS", "source_text": "The screens were then slowly inverted. […] The current was held constant at 15 mA. […] There were 10 mice in each treatment group."}, "[4]": {"system": "cGMP in cerebellum", "assay": "Assay for Effect on cGMP Levels in Cerebellum", "format": "in vivo, mouse (Swiss-Webster)", "description": "The purpose of this assay is to determine the extent of in vivo bioavailability and the potency as an NMDA antagonist of compound of the invention as compared to known NMDA antagonists, namely, 3(2-carboxypiperizine-4-yl)propyl-1-phosphonic acid (CPP) and cis-4-phosphonomethyl-2-piperidinecarboxylic acid (CGS 19755). Male Swiss-Webster mice (17-24 g were injected sub-cutaneously (s.c.) with compound of the invention and the known NMDA antagonist standards 30 minutes prior to sacrifice by focussed microwave irradiation. Groups consisted of 7-10 mice. Compounds of Ex. #7 was dissolved in isotonic saline and all compounds were administered in a volume of 0.2 ml per mouse. Cerebella samples were extracted in IN HCl. Hydrochloric acid in extracts of the cerebellum were freeze-dried for assay of cGMP with a commercial RIA kit (NEN). Statistics (Dunett's t-test) were performed as described previously [P. L. Wood et al., Neurochem., 19, 975-982 (1980)]. ED50 values were calculated from log-logit transformation of the dose-response data."}}}
{"smiles": "O=C(O)c1cn2c(CP(=O)(O)O)cccc2n1", "note": "[Example 7, 5-(phosphonomethyl)imidazo[1,2-a]pyridine-2-carboxylic acid]", "values": [{"measurement": "Ki", "setting": "[1]", "result": 2400, "unit": "nM"}, {"measurement": "Ki", "setting": "[2]", "result": 3.2, "unit": "µM"}, {"measurement": "Protected from ECS (% of Mice)", "setting": "[3]; 10 mg/kg s.c.", "result": 20, "unit": "%"}, {"measurement": "Protected from ECS (% of Mice)", "setting": "[3]; 32 mg/kg s.c.", "result": 60, "unit": "%"}, {"measurement": "Protected from ECS (% of Mice)", "setting": "[3]; 56 mg/kg s.c.", "result": 90, "unit": "%"}, {"measurement": "Protected from ECS (% of Mice)", "setting": "[3]; 100 mg/kg s.c.", "result": 100, "unit": "%"}, {"measurement": "ED50", "setting": "[3]; Mus musculus, sc, 0.5 h, s.c., doses in mg/kg, 95% CI 12.3-32.9, read-out: Protected from ECS ED50", "result": 21.8, "unit": "mg/kg"}, {"measurement": "protection against tonic hindlimb extensor seizures (in words)", "setting": "[3]; s.c.", "result": "protected against tonic hindlimb extensor seizures in a dose-dependent fashion"}, {"measurement": "ED50", "setting": "[4]; Mus musculus, sc, 0.5 h, 30 min prior to sacrifice, read-out: Decrease in cGMP ED50", "result": 18.3, "unit": "mg/kg"}, {"measurement": "brain bioavailability (in words)", "setting": "[4]; by decrease of cGMP in mouse cerebellum, s.c.", "result": "brain bioavailable"}, {"measurement": "potency relative to CPP (in words)", "setting": "[4]; s.c., cerebellar cGMP", "result": "in the same range of potency as the known NMDA antagonist CPP"}]}
